Series [1] is described as follows: Pharmacokinetic studies in dogs (single i.v. and p.o. dose). It counts as in vivo. Conditions: male, Beagle, dog, plasma, iv, 50 mg/kg. The method, then:
Separation was performed on a Phenomenex Kinetex C18 column (2.1 mm × 50 mm, 2.6 µm) with 0.1 vol.% formic acid in water (A) and 0.1 vol.% formic acid in acetonitrile (B) as the mobile phase. The samples were analyzed in a linear gradient elution at a flow rate of 0.45 mL/min at 40 °C: starting with 5 vol.% B for 2 min, ramping to 95 vol.% B in 1 min, maintaining for 3 min and then returning to the initial condition. The injection volume was 5 µL. Ion source parameters were optimized as follows: capillary voltage, 3500 V; drying gas, 12 L/min and 345 °C; nebulizer gas, 35 psi; sheath gas, 11 L/min and 400 °C. Mass spectra were acquired in negative multiple reaction monitoring (MRM) mode at m/z (299 > 283) (F, 100 V; CE, 25 eV) and (253 > 143) (F, 100 V; CE, 30 eV) for SP-8356 and HSDH, respectively. The data were analyzed using Agilent MassHunter Quantitative Analysis software (version B.05.00). The retention times of SP-8356 and HSDH were (4.10 and 4.17) min, respectively. The linear calibration range of SP-8356 was (31.25–4000) ng/mL (r^2 > 0.99). The precision and accuracy of the assay were evaluated using quality control samples prepared in triplicate at (30, 300 and 3000) ng/mL as described in previous report. Both the accuracy and precision of this analytical method were within the acceptable ranges. Pharmacokinetic parameters were calculated by noncompartmental analysis using PKSolver.
Animal studies were conducted at KNOTUS Co., Ltd. (IACUC Approval No.: KNOTUS IACUC 18-KE-363; Approval date: 24 October 2018). SP-8356 dissolved in DMSO/ethanol/Solutol HS 15/deionized water (5/3/40/52 vol.%) was dosed i.v. or p.o. at 50 mg/kg (n = 6/dose group) to male Beagle dogs (11 months old; (11.6–12.4) kg; OrientBio Inc., Gyeonggi, Republic of Korea). Blood samples were collected at selected time points for 24 h post-dosing through jugular vein cannula into EDTA-treated tubes containing AA (final concentration: 0.4 w/v%). The blood samples were then centrifuged at 3000 rpm at 4 °C for 20 min. The separated plasma samples were kept frozen at −80 °C, until analysis. Sample and data analysis methods were the same as those described in Section 4.2.

Series [2] in a line: In vivo metabolite identification, pooled rat urine. Particulars: rat pooled urine 0–24 h, single i.v. dose of SP-8356. The method, then:
Rat urine samples were collected from the animal studies approved by the IACUC of Korea University (Approval No.: KUIACUC-2017-124; Approval date: Jul. 29, 2017). SP-8356 dissolved in DMA/Cremophor EL/saline (5/10/85 vol.%) was dosed i.v. at 10 mg/kg (n = 5/dose group) to male SD rats (8 weeks old; (255–275) g; Koatech Inc., Gyeonggi, Republic of Korea) housed individually in metabolic cages. Urine samples were collected for ((0–4), (4–8) and (8–24)) h. Pooled urine samples were mixed with equal volume of acetonitrile containing HSDH (1 μg/mL) as IS, followed by filtration with a syringeless filter device (Mini-UniPrep™, PTFE filter media with polypropylene housing, 0.45 µm). The filtrate was analyzed by Agilent 6530 Q-TOF LC-MS/MS system equipped with dual AJS ESI ion source and Agilent 1200 series HPLC system, as follows.
Chromatographic separation was achieved on an Agilent Eclipse C18 column (2.1 mm × 100 mm, 3.5 µm) by a gradient elution with a mobile phase consisting of 0.1 vol.% formic acid in water (A) and 0.1 vol.% formic acid in acetonitrile (B) at 50 °C: starting with 5 vol.% B for 2 min, ramping to 95 vol.% B over 1 min, maintaining for 3 min. The mobile phase flow rate was kept at 0.45 mL/min throughout the run. The sample injection volume was 5 µL. […]

The subject of series [3] is mouse xenograft model of triple-negative breast cancer. On the set-up: method as in PMID 31036845. Particulars: in mice ref 10; cited from earlier work.
On the set-up of series [4]: method as in PMID 31036845. Conditions: mice, intraperitoneal administration ref 10; cited from earlier work.

SMILES strings stand for the structures. Read-outs that look alike come from different tables or passages of the source.

As a reminder, the AUC(0-inf) is the area under the concentration-time curve extrapolated to infinity. Low values mean less exposure, high ones more exposure. Broadly, the AUC(0-t) is the area under the concentration-time curve up to a stated or last time point. Low readings indicate less exposure, high ones more exposure. Consider `COc1cc(/C=C/C2=CC(=O)[C@H]3C[C@@H]2C3(C)C)cc(O)c1O` [SP-8356, (1S,5R)-4-((E)-3,4-dihydroxy-5-methoxystryryl)-6,6-dimethylbicylco[3.1.1]hept-3-en-2-one], for which, in series [1] (read-out: Vss), the Vd came to 1.3 ± 0.3 L/kg. The Vd in series [1] (read-out: Vz) was 1.8 ± 0.3 L/kg. Also, in series [1], the AUC(0-inf) stood at 12400 ng·h/mL, the AUC(0-t) was 12400 ng·h/mL and the clearance is 66.7 mL/min/kg. Moreover, the “relative peak size (AR) in urine, in total” value in series [2] is on record as “almost insignificant”. Also, the anti-breast cancer activity result in series [3] was “potent anti-breast cancer effect”. Moreover, the plasma exposure entry in series [4] is reported as “Low plasma exposure”.

Source of the values: paper PMC7221793, “Metabolism and Pharmacokinetics of SP-8356, a Novel (1S)-(−)-Verbenone Derivative, in Rats and Dogs and Its Implications in Humans” (Molecules, 2020).
